Experimental data published in patent US20240383869A1, “ARYLACETYL INHIBITORS OF TG2 AND USES THEREOF” (UNIVERSITY OF OTTAWA, priority 2021, published 2024).

Columns and labels:
hTG1 = biological target: T1, hTG1 (Homo sapiens, UniProt P22735); experiment: Colorimetric transamidase activity assay, isozyme selectivity; type: biochemical; conditions: normalized [I]/α
T1 sequence (P22735 1-817): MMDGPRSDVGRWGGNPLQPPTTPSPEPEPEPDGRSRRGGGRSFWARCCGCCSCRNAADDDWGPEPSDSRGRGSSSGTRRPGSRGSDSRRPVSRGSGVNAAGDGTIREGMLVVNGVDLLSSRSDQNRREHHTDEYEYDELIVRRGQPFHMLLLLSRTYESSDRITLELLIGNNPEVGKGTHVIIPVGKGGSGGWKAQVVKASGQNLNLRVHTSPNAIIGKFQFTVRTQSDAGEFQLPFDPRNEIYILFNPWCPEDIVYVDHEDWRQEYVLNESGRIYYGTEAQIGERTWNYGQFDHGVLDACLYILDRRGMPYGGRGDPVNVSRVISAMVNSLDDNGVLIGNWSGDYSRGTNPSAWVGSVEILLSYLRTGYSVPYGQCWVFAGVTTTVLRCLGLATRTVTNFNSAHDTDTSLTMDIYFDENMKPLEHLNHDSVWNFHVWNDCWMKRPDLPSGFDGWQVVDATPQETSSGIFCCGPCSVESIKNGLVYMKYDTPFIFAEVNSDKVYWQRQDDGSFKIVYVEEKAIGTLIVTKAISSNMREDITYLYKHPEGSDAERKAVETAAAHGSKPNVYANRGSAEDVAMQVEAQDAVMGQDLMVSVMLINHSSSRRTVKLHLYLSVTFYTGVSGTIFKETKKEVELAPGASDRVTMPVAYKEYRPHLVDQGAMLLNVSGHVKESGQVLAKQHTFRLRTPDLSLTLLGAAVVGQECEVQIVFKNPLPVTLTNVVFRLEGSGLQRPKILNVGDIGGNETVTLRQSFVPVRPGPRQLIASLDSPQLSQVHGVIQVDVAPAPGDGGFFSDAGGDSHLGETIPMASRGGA
Description: Colorimetric transamidase activity assay. The activities of hTG1, hTG2 and hTG6 were measured via a colorimetric assay using the chromogenic substrate Cbz-Glu(γ-p-nitrophenyl ester)Gly (AL5), as described (Leblanc, A. et al., “Kinetic studies of guinea pig liver transglutaminase reveal a general-base-catalyzed deacylation mechanism.” Biochemistry 2001, 40 (28), 8335-8342). Assays were conducted at 25° C. in 50 mM MOPS buffer (pH 6.95) containing 7.5 mM CaCl2. […] Stock solutions of the inhibitors were made in water ranging in concentration from 100-500 μM. The reaction was initiated with the addition of enzyme, 0.10 μM hTG1, 0.25 μM hTG2 (4.6 mU/mL) or 0.32 μM hTG6. Formation of hydrolysis product, p-nitrophenolate (pNP), was monitored at 405 nm in a polystyrene 96-well microplate using a BioTek Synergy 4 plate reader. The observed first-order rate constants of inactivation (kobs) were determined via non-linear regression fit to a mono-exponential model (Eqn 1) of absorbance versus time curves. These rate constants (kobs) were in turn fit to a saturation kinetics model (Eqn 2), by non-linear regression, providing the kinetic parameters kinact and KI, as previously described by Stone and Hofsteenge (Stone, S. R. and Hofsteenge, J., “Specificity of activated human protein C.” Biochem. J. 1985, 230 (2), 497-502). […] Experiments were completed in triplicate at minimum.

TG3a = biological target: T2, TG3a (Homo sapiens, UniProt Q08188); experiment: Fluorescence isopeptidase activity assay (A101 FRET-quenched probe), isozyme selectivity; type: biochemical; conditions: normalized [I]/α
T2 construct: purchased Zedira
T2 sequence (Q08188 2-467 limits assumed): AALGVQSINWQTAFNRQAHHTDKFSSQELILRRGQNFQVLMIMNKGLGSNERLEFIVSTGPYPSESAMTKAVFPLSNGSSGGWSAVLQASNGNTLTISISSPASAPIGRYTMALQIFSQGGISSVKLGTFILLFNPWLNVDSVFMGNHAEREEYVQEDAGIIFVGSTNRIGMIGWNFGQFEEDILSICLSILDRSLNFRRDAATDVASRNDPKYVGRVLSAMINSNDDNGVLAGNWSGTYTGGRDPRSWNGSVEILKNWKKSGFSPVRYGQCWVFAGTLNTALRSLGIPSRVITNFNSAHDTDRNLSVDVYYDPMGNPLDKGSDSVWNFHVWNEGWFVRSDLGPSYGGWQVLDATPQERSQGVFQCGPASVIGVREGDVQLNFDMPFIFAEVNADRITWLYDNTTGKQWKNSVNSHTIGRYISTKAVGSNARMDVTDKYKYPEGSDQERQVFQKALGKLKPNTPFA
T2 sequence (Q08188 468-693 partner limits assumed): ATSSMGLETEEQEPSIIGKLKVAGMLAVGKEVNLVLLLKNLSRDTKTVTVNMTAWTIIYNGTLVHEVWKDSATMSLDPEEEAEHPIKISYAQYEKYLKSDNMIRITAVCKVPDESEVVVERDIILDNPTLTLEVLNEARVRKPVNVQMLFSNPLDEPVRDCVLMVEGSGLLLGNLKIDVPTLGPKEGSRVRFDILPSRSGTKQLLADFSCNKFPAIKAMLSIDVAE
Description: Fluorescence isopeptidase activity assay. The isopeptidase activity of pre-activated TG3a and FXIIIa (purchased from Zedira) was measured via a fluorescence-based assay as described (Kirily, R. et al., “Isopeptidase activity of human transglutaminase 2: disconnection from transamidation and characterization by kinetic parameters.” Amino Acids 2016, 48 (1), 31-40) using the commercially available peptidic FRET quenched probe A101. Briefly, the final concentration in the reaction mixture contained 50 mM Tris (pH 7.0), 10 mM CaCl2, 100 mM NaCl, 2.8 mM TCEP, 50 μM A101 and 14 mM H-Gly-OMe. The reaction was monitored at 25° C. using a BioTek Synergy 4 plate reader (Ex/Em: 318/413 nm). Enzymatic inhibition assays were run under Kitz and Wilson conditions (Kitz, R. and Wilson, I. B., “Esters of methanesulfonic acid as irreversible inhibitors of acetylcholinesterase.” J. Biol. Chem. 1962, 237, 3245-49), which were established for TG3a and FXIIIa at a substrate (A101) concentration of 50 μM using enzyme concentrations of 0.17 μM and 0.11 μM for TG3a and FXIIIa, respectively.

Compound	inhibition of TG1 (hTG1)	inhibition of TG3a (TG3a)
C=CC(=O)NCCCC[C@H](NC(=O)OCc1ccccc1)C(=O)N1CCN(C(=O)c2cccc3ccccc23)CC1 [AA9, reference compound]	none of these inhibitors showed any detectable inhibition	none of these inhibitors showed any detectable inhibition
C=CC(=O)NCCCC[C@H](NC(=O)Cc1ccccc1F)C(=O)N1CCN(C(=O)c2cccc3ccccc23)CC1 [Inhibitor 72, (S)-N-(6-(4-(1-naphthoyl)piperazin-1-yl)-5-(2-(2-fluorophenyl)acetamido)-6-oxohexyl)acrylamide]	none of these inhibitors showed any detectable inhibition	none of these inhibitors showed any detectable inhibition
C=CC(=O)NCCCC[C@H](NC(=O)Cc1ccccc1C)C(=O)N1CCN(C(=O)c2cccc3ccccc23)CC1 [Inhibitor 74, (S)-N-(6-(4-(1-naphthoyl)piperazin-1-yl)-5-(2-(2-methylphenyl)acetamido)-6-oxohexyl)acrylamide]	none of these inhibitors showed any detectable inhibition	none of these inhibitors showed any detectable inhibition
